Experimental data as given in publication PMC7914897, “Cytotoxic Potential of a-Azepano- and 3-Amino-3,4-SeCo-Triterpenoids” (International Journal of Molecular Sciences, 2021).

How the values were obtained:
HT29 (Colon cancer) = test: NCI-60 screen (SRB, 48 h); settings: Homo sapiens
LOX IMVI (Melanoma) = test: NCI-60 screen (SRB, 48 h); type: cell-based; settings: Homo sapiens
TK-10 (Renal cancer) = test: NCI-60 screen (SRB, 48 h); settings: Homo sapiens
[1] = test system: NCI-H460 (NSC lung cancer); test: NCI-60 screen (SRB, 48 h); settings: Homo sapiens
OVCAR-8 (Ovarian cancer) = test: NCI-60 screen (SRB, 48 h); settings: Homo sapiens
HS 578T (Breast cancer) = test: NCI-60 screen (SRB, 48 h); settings: Homo sapiens
OVCAR-4 (Ovarian cancer) = test: NCI-60 screen (SRB, 48 h); type: cell-based; settings: Homo sapiens
[2] = test system: NCI-H23 (NSC lung cancer); test: NCI-60 screen (SRB, 48 h); settings: Homo sapiens
SF-539 (CNS cancer) = test: NCI-60 screen (SRB, 48 h); settings: Homo sapiens
BT-549 (Breast cancer) = test: NCI-60 screen (SRB, 48 h); type: cell-based; settings: Homo sapiens
Ovarian Cancer subpanel = test: NCI-60 screen, subpanel; settings: Homo sapiens
Leukemia subpanel = test: cells; settings: Homo sapiens
HOP-62 (NSC lung cancer) = test: NCI-60 screen (SRB, 48 h); settings: Homo sapiens
[3] = test system: MDA-MB-468 (Breast cancer); test: cells; settings: Homo sapiens
SK-MEL-5 (Melanoma) = test: NCI-60 screen (SRB, 48 h); settings: Homo sapiens
OVCAR-3 (Ovarian cancer) = test: cells; settings: Homo sapiens
DU-145 (Prostate cancer) = test: NCI-60 screen (SRB, 48 h); settings: Homo sapiens
MOLT-4 (Leukemia) = test: NCI-60 screen (SRB, 48 h); settings: Homo sapiens
Breast cancer subpanel = test: NCI-60 screen, subpanel; settings: Homo sapiens
U251 (CNS cancer) = test: NCI-60 screen (SRB, 48 h); settings: Homo sapiens
[4] = test system: NCI/ADR-RES (Ovarian cancer); test: NCI-60 screen (SRB, 48 h); settings: Homo sapiens
SK-MEL-28 (Melanoma) = test: NCI-60 screen (SRB, 48 h); settings: Homo sapiens
SF-268 (CNS cancer) = test: NCI-60 screen (SRB, 48 h); settings: Homo sapiens
MDA-MB-435 (Melanoma) = test: NCI-60 screen (SRB, 48 h); type: cell-based
Colon Cancer subpanel = test: NCI-60 screen, subpanel; settings: Homo sapiens

**Q.** Which results are given for C=C(C)[C@@H]1CC[C@]2(C)[C@H](C=CC3=C4C[C@@](C)(CO)CC[C@]4(C)CC[C@]32C)[C@@]1(C)CCCN [Compound 20]?
**A.** GI50 (HT29 (Colon cancer); HT-29): 1.63 µM; IC (TGI) (HT29 (Colon cancer); HT-29, 48 h, read-out: TGI): 3.28 µM; CC50 (HT29 (Colon cancer); HT-29, read-out: LC50): 6.59 µM; IC (TGI) (LOX IMVI (Melanoma); 48 h): 2.7 µM; activity at 10 µM (LOX IMVI (Melanoma); 48 h, 1 dose 10 µM, read-out: Growth % of the Most Sensitive Cell Lines): -100%; GI50 (LOX IMVI (Melanoma); read-out: GI50): 1.37 µM; CC50 (LOX IMVI (Melanoma); read-out: LC50 (the source's name)): 5.31 µM; GI50 (TK-10 (Renal cancer); TK-10): 1.78 µM; IC (TGI) (TK-10 (Renal cancer); TK-10, 48 h, read-out: TGI): 3.36 µM; CC50 (TK-10 (Renal cancer); TK-10, read-out: LC50): 6.37 µM; GI50 ([1]; NCI-H460): 1.71 µM; IC (TGI) ([1]; NCI-H460, 48 h, read-out: TGI): 3.33 µM; CC50 ([1]; NCI-H460, read-out: LC50): 6.49 µM; GI50 (OVCAR-8 (Ovarian cancer); OVCAR-8): 2.13 µM; IC (TGI) (OVCAR-8 (Ovarian cancer); OVCAR-8, 48 h, read-out: TGI): 4.61 µM; CC50 (OVCAR-8 (Ovarian cancer); OVCAR-8, read-out: LC50): 10 µM; GI50 (HS 578T (Breast cancer)): 1.8 µM; IC (TGI) (HS 578T (Breast cancer); 48 h, read-out: TGI): 4.07 µM; CC50 (HS 578T (Breast cancer); read-out: LC50): 9.2 µM; IC (TGI) (OVCAR-4 (Ovarian cancer); OVCAR-4, 48 h): 3.09 µM; GI50 (OVCAR-4 (Ovarian cancer); OVCAR-4, read-out: GI50): 1.53 µM; CC50 (OVCAR-4 (Ovarian cancer); OVCAR-4, read-out: LC50 (the source's name)): 6.23 µM; GI50 ([2]; NCI-H23): 1.77 µM; IC (TGI) ([2]; NCI-H23, 48 h, read-out: TGI): 3.32 µM; CC50 ([2]; NCI-H23, read-out: LC50): 6.24 µM; GI50 (SF-539 (CNS cancer); SF-539): 1.73 µM; IC (TGI) (SF-539 (CNS cancer); SF-539, 48 h, read-out: TGI): 3.13 µM; CC50 (SF-539 (CNS cancer); SF-539, read-out: LC50): 5.67 µM; GI50 (BT-549 (Breast cancer); BT-549): 1.64 µM; IC (TGI) (BT-549 (Breast cancer); BT-549, 48 h): 3.07 µM; CC50 (BT-549 (Breast cancer); BT-549, read-out: LC50 (the source's name)): 5.78 µM; IC (TGI) (Ovarian Cancer subpanel; 48 h, read-out: TGI MG_MID): 3.3 µM; GI50 (Ovarian Cancer subpanel; read-out: GI50 MG_MID): 1.69 µM; CC50 (Ovarian Cancer subpanel; read-out: LC50 MG_MID): 6.49 µM; IC (TGI) (Leukemia subpanel; 48 h, read-out: TGI MG_MID): 4.52 µM; GI50 (Leukemia subpanel; read-out: GI50 MG_MID): 1.82 µM; CC50 (Leukemia subpanel; read-out: LC50 MG_MID): > 100 µM; GI50 (HOP-62 (NSC lung cancer); HOP-62): 1.98 µM; IC (TGI) (HOP-62 (NSC lung cancer); HOP-62, 48 h, read-out: TGI): 4.04 µM; GI50 ([3]; MDA-MB-468): 1.58 µM; IC (TGI) ([3]; MDA-MB-468, 48 h, read-out: TGI): 3.2 µM; CC50 ([3]; MDA-MB-468, read-out: LC50): 6.47 µM; GI50 (SK-MEL-5 (Melanoma); SK-MEL-5): 1.72 µM; IC (TGI) (SK-MEL-5 (Melanoma); SK-MEL-5, 48 h, read-out: TGI): 3.19 µM; GI50 (OVCAR-3 (Ovarian cancer); OVCAR-3): 1.48 µM; IC (TGI) (OVCAR-3 (Ovarian cancer); OVCAR-3, 48 h, read-out: TGI): 2.85 µM; CC50 (OVCAR-3 (Ovarian cancer); OVCAR-3, read-out: LC50): 5.46 µM; GI50 (DU-145 (Prostate cancer); DU-145): 1.72 µM; IC (TGI) (DU-145 (Prostate cancer); DU-145, 48 h, read-out: TGI): 3.15 µM; CC50 (DU-145 (Prostate cancer); DU-145, read-out: LC50): 5.78 µM; GI50 (MOLT-4 (Leukemia); MOLT-4): 1.78 µM; IC (TGI) (MOLT-4 (Leukemia); MOLT-4, 48 h, read-out: TGI): 3.86 µM; IC (TGI) (Breast cancer subpanel; 48 h, read-out: TGI MG_MID): 3.41 µM; GI50 (Breast cancer subpanel; read-out: GI50 MG_MID): 1.68 µM; CC50 (Breast cancer subpanel; read-out: LC50 MG_MID): 6.94 µM; GI50 (U251 (CNS cancer); U-251): 1.64 µM; IC (TGI) (U251 (CNS cancer); U-251, 48 h, read-out: TGI): 3.32 µM; CC50 (U251 (CNS cancer); U-251, read-out: LC50): 6.72 µM; GI50 [4]: 1.74 µM; IC (TGI) ([4]; 48 h, read-out: TGI): 3.37 µM; CC50 ([4]; read-out: LC50): 6.54 µM; GI50 (SK-MEL-28 (Melanoma); SK-MEL-28): 1.82 µM; IC (TGI) (SK-MEL-28 (Melanoma); SK-MEL-28, 48 h, read-out: TGI): 3.25 µM; CC50 (SK-MEL-28 (Melanoma); SK-MEL-28, read-out: LC50): 5.8 µM; GI50 (SF-268 (CNS cancer); SF-268): 1.61 µM; IC (TGI) (SF-268 (CNS cancer); SF-268, 48 h, read-out: TGI): 3.25 µM; CC50 (SF-268 (CNS cancer); SF-268, read-out: LC50): 6.56 µM; GI50 (MDA-MB-435 (Melanoma); Homo sapiens, MDA-MB-435): 1.78 µM; IC (TGI) (MDA-MB-435 (Melanoma); Homo sapiens, MDA-MB-435, 48 h, read-out: TGI): 3.2 µM; CC50 (MDA-MB-435 (Melanoma); Homo sapiens, MDA-MB-435, read-out: LC50 (the source's name)): 5.76 µM; Growth % of the Most Sensitive Cell Lines (MDA-MB-435 (Melanoma); MDA-MB-435, 1 dose 10 µM): −96.77%; IC (TGI) (Colon Cancer subpanel; 48 h, read-out: TGI MG_MID): 2.98 µM; GI50 (Colon Cancer subpanel; read-out: GI50 MG_MID): 1.47 µM; CC50 (Colon Cancer subpanel; read-out: LC50 MG_MID): 5.96 µM
